This note sets out measurements from PMC11280390, “Synthesis of Nitrostyrylthiazolidine-2,4-dione Derivatives Displaying Antileishmanial Potential” (Pharmaceuticals, 2024).

Data set [1] deals with Leishmania infantum promastigotes. Put plainly: In vitro antileishmanial activity on L. infantum promastigotes (MTT, 72 h). In kind it is cell-based. The settings on record: L. infantum promastigotes, MTT, read-out: Anti-L. infantum Promastigote Activity EC50. As for the experimental part: Luciferase-expressing Leishmania infantum was kindly provided by Professor Thierry Lang of the Institut Pasteur. L. infantum promastigotes were routinely grown at 27 °C in Schneider’s Drosophila Medium (Dominique […] SAS, Bernolsheim, France) supplemented with 10% fetal calf serum, 2% human urine, sodium pyruvate 0.04 mM, hemin 0.1 µg/mL, HEPES 5 mM, streptomycin 100 µg/mL, penicillin 100 U/mL, L-glutamine 2 mM (culture medium). The in vitro evaluation of the antileishmanial activity of the tested compound on L. infantum promastigotes forms was assessed according to the Mosmann protocol with slight modifications. […] Appropriate controls treated with DMSO, Miltefosine, Amphotericin B and Fexinidazole sulfone (reference drugs purchased from Sigma-Aldrich, Saint-Louis, MO, USA) were added to each set of experiments. The plates were incubated at 27 °C for 72 h, Then, each plate-well was microscope-analyzed to detect any precipitate formation. Afterward, 20 µL of MTT (3-(4,5-dimethylthiazol-2-yl)-2,5-diphenyltetrazolium bromide) (Sigma-Aldrich, Saint-Louis, MI, USA) solution (5 mg/mL in PBS) were added to each well and incubated at 27 °C for 4 h. The reaction was then stopped by the addition of 100 µL of 10% sodium dodecyl sulfate—50% isopropanol. Plates were shaken vigorously at 400 rpm for 10 min. […] EC50 values represent the mean value calculated from at least three separate experiments.

A short description of data set [2]: In vitro cytotoxicity on the human hepatic HepG2 cell line (MTT, 72 h). The settings on record: human, HepG2 cells (hepatocarcinoma cell line, ATCC HB-8065), HepG2 Cytotoxicity CC50, HepG2, 72 h, MTT. As for the experimental part: (§1) HepG2 cell line (hepatocarcinoma cell line purchased from ATCC, ref HB-8065) was maintained at 37 °C, 5% CO2 with 90% humidity in MEM supplemented with 10% fetal bovine serum, 1% L-glutamine (200 mM) and penicillin (100 U/mL)/streptomycin ([…]) (complete MEM medium). The tested molecules’ cytotoxicity was assessed according to the method of Mosmann with slight modifications. Briefly, 5 × 10^3 cells in 100 μL of complete medium were inoculated into each well of 96-well plates and incubated at 37 °C in a humidified 5% CO2. After 24 h incubation, 100 μL of medium with various product concentrations dissolved in DMSO (final concentration less than 0.5% v/v) were added and the plates were incubated for 72 h at 37 °C. Triplicate assays were performed for each sample. Each plate well was then microscope-examined to detect possible precipitate formation before the medium was aspirated from the wells. Then, 100 μL of MTT (3-(4,5-dimethyl-2-thiazolyl)-2,5-diphenyl-2H-tetrazolium bromide) solution (0.5 mg/mL in medium without FCS) were then added to each well. Cells were incubated for 2 h at 37 °C, following which the MTT solution was removed and DMSO (100 μL) was added to dissolve the resulting blue formazan crystals. Plates were shaken vigorously (700 rpm) for 10 min. The absorbance was measured at 570 nm with 630 nm as reference wavelength using a TECAN Infinite F-200 spectrophotometer (Tecan Trading AG, Männedorf, Switzerland). DMSO was used as blank and doxorubicin (purchased from Sigma Aldrich, Saint Louis, MI, USA) as positive control. Cell viability was calculated as a percentage of control (cells incubated without compound). […] CC50 values represent the mean value calculated from three separate experiments.

Another data set deals with HepG2 cell line. The description is as above. The settings on record: for Selectivity INDEX (SI = CC50/EC50): HepG2 CC50 / L. infantum promastigote EC50. The protocol:
as §1

Read-outs that look alike come from different tables or passages of the source. Where only a bound is given, the exact number is not on record here.

As usually defined, the melting point is the temperature of the solid-liquid transition. For orientation: EC50 means the concentration at which the effect is half-maximal. A word on the CC50: it is the concentration giving 50% cytotoxicity. `CCOC(=O)CN1C(=O)S/C(=C\c2ccccc2[N+](=O)[O-])C1=O` [Compound 12b, Ethyl ((Z)-5-(2-nitrobenzylidene)thiazolidine-2,4-dion-3-yl)acetate] came in with a melting point of 81 to 83 °C. In addition, the EC50 in data set [1] (Leishmania infantum) is 24.1 ± 5.14 µM. This molecule also had a CC50 at 72 h in data set [2] of 39.4 ± 7.09 µM. Moreover, the “Selectivity INDEX (SI = CC50/EC50)” value with HepG2 cell line is on record as 1.6.
Turning to `O=C(CN1C(=O)S/C(=C\c2ccc([N+](=O)[O-])cc2)C1=O)Nc1ccccc1` [Compound 23d, (Z)-2-(5-(4-Nitrobenzylidene)thiazolidine-2,4-dion-3-yl)-N-phenylacetamide], the melting point fell in the range of 259 to 261 °C.
As to `CCOC(=O)CN1C(=O)S/C(=C\c2cccc([N+](=O)[O-])c2)C1=O` [Compound 12c, Ethyl ((Z)-5-(3-nitrobenzylidene)thiazolidine-2,4-dion-3-yl)acetate], the EC50 in data set [1] (Leishmania infantum) is 5.51 ± 1.29 µM. Further, the CC50 at 72 h in data set [2] lay in the range of 101 to 125 µM. Moreover, the “Selectivity INDEX (SI = CC50/EC50)” value in the data set with HepG2 cell line was above 22.7. Also, the CC50 in the data set with HepG2 cell line (read-out: HepG2 Cytotoxicity CC50, HepG2, 72 h, MTT) is above 125 µM.
In turn, `COc1cc(/C=C2\SC(=O)N(CC(C)=O)C2=O)cc(OC)c1OC` [Compound 13e] showed a melting point of 139 to 140 °C.
Regarding `CC(=O)CN1C(=O)S/C(=C\c2cccc([N+](=O)[O-])c2)C1=O` [Compound 13c, (Z)-5-(3-Nitrobenzylidene)-3-(2-oxopropyl)thiazolidine-2,4-dione], the melting point is 188 to 190 °C.
`COc1cc(/C=C2\SC(=O)N(CC(=O)Nc3ccc([N+](=O)[O-])cc3)C2=O)cc(OC)c1OC` [Compound 26e, (Z)-N-(4-Nitrophenyl)-2-(5-(3,4,5-trimethoxybenzylidene)thiazolidine-2,4-dion-3-yl)acetamide] yielded a melting point of 253 to 254 °C.
For the molecule `O=C(CN1C(=O)S/C(=C\c2ccccc2)C1=O)c1ccccc1` [Compound 16a], the melting point fell in the range of 182 to 183 °C.
Regarding `NC(=O)CN1C(=O)S/C(=C\c2ccccc2[N+](=O)[O-])C1=O` [Compound 15b, (Z)-2-(5-(2-Nitrobenzylidene)thiazolidine-2,4-dion-3-yl)acetamide], the melting point was 233 to 235 °C.
Still for that read-out and setting: the figure for `CCOC(=O)CN1C(=O)S/C(=C\c2cc(OC)c(OC)c(OC)c2)C1=O` [Compound 12e] is 145 to 147 °C; for `N#CCN1C(=O)S/C(=C\c2ccccc2)C1=O` [Compound 14a, (Z)-2-(5-Benzylidenethiazolidine-2,4-dion-3-yl)acetonitrile] it is 230 to 232 °C.
With `CC(=O)CN1C(=O)S/C(=C\c2ccccc2)C1=O` [Compound 13a, (Z)-5-Benzylidene-3-(2-oxopropyl)thiazolidine-2,4-dione], the melting point was 139 to 140 °C.
As for `O=C(CN1C(=O)S/C(=C\c2ccc([N+](=O)[O-])cc2)C1=O)c1ccccc1` [Compound 16d, (Z)-5-(4-Nitrobenzylidene)-3-(2-oxo-2-phenylethyl)thiazolidine-2,4-dione], the melting point lay within 232 to 233 °C.
`COc1ccc(NC(=O)CN2C(=O)S/C(=C\c3cc(OC)c(OC)c(OC)c3)C2=O)cc1` [Compound 25e, (Z)-N-(4-Methoxyphenyl)-2-(5-(3,4,5-trimethoxybenzylidene)thiazolidine-2,4-dion-3-yl)acetamide] came in with a melting point of 215 to 216 °C.
Still for that read-out and setting: the same measure for `N#CCN1C(=O)S/C(=C\c2ccccc2[N+](=O)[O-])C1=O` [Compound 14b, (Z)-2-(5-(2-Nitrobenzylidene)thiazolidine-2,4-dion-3-yl)acetonitrile]: 119 to 120 °C.
Same read-out and setting: the same measure for `COc1cc(/C=C2\SC(=O)N(CC(=O)Nc3ccccc3Cl)C2=O)cc(OC)c1OC` [Compound 28e, (Z)-N-(2-Chlorophenyl)-2-(5-(3,4,5-trimethoxybenzylidene)thiazolidine-2,4-dion-3-yl)acetamide]: 222 to 223 °C.
`O=C1NC(=O)/C(=C/c2cccc([N+](=O)[O-])c2)S1` [Compound 4]: the concentration giving a half-maximal response (EC50) in data set [1] (Leishmania infantum) was 28 ± 7.15 µM. Besides, the CC50 at 72 h in data set [2] is 190 ± 18.6 µM. The “Selectivity INDEX (SI = CC50/EC50)” value in the data set with HepG2 cell line is reported as 6.8.
Take `COc1cc(/C=C2\SC(=O)N(CC(=O)Nc3ccc(C)cc3)C2=O)cc(OC)c1OC` [Compound 24e, (Z)-N-(4-Methylphenyl)-2-(5-(3,4,5-trimethoxybenzylidene)thiazolidine-2,4-dion-3-yl)acetamide]: the melting point was 196 to 198 °C.
On the same count and under the same terms, the same measure for `NC(=O)CN1C(=O)S/C(=C\c2ccc([N+](=O)[O-])cc2)C1=O` [Compound 15d, (Z)-2-(5-(4-Nitrobenzylidene)thiazolidine-2,4-dion-3-yl)acetamide]: 281 to 283 °C; for `COc1cc(/C=C2\SC(=O)N(CC(=O)c3ccccc3)C2=O)cc(OC)c1OC` [Compound 16e, (Z)-3-(2-Oxo-2-phenylethyl)-5-(3,4,5-trimethoxybenzylidene)thiazolidine-2,4-dione]: 187 to 189 °C; for `COc1cc(/C=C2\SC(=O)NC2=O)cc(OC)c1OC` [Compound 6]: 185 to 187 °C.
`O=C(CN1C(=O)S/C(=C\c2cccc([N+](=O)[O-])c2)C1=O)Nc1ccccc1` [Compound 23c, (Z)-2-(5-(3-Nitrobenzylidene)thiazolidine-2,4-dion-3-yl)-N-phenylacetamide] came in with a melting point of 255 to 257 °C.
On the same count and under the same terms, the figure for `CC(=O)CN1C(=O)S/C(=C\c2ccccc2[N+](=O)[O-])C1=O` [Compound 13b, (Z)-5-(2-Nitrobenzylidene)-3-(2-oxopropyl)thiazolidine-2,4-dione] is 146 to 148 °C; for `COc1ccc(NC(=O)CN2C(=O)S/C(=C\c3ccc([N+](=O)[O-])cc3)C2=O)cc1` [Compound 25d, (Z)-N-(4-Methoxyphenyl)-2-(5-(4-nitrobenzylidene)thiazolidine-2,4-dion-3-yl)acetamide] it is 254 to 256 °C.
As for `O=C(O)CN1C(=O)S/C(=C\c2cccc([N+](=O)[O-])c2)C1=O` [Compound 29, (Z)-2-(5-(3-Nitrobenzylidene)thiazolidin-2,4-dion-3-yl)acetic Acid], the melting point fell in the range of 191 to 193 °C. In data set [1] (Leishmania infantum), the EC50 was above 50 µM. The 50% cytotoxic concentration (CC50) at 72 h in data set [2] was above 250 µM.
Turning to `O=C(CN1C(=O)S/C(=C\c2ccccc2)C1=O)Nc1ccc([N+](=O)[O-])cc1` [Compound 26a, (Z)-2-(5-Benzylidenethiazolidine-2,4-dion-3-yl)-N-(4-nitrophenyl)acetamide], the melting point was 270 to 272 °C.
Consider `O=C(CN1C(=O)S/C(=C\c2ccccc2)C1=O)Nc1ccccc1` [Compound 23a], for which the melting point is 259 to 260 °C.
`O=C(CN1C(=O)S/C(=C\c2ccccc2)C1=O)Nc1ccccc1Cl` [Compound 28a, (Z)-2-(5-Benzylidenethiazolidine-2,4-dion-3-yl)-N-(2-chlorophenyl)acetamide] gave a melting point of 243 to 245 °C.
`CCOC(=O)CN1C(=O)S/C(=C\c2ccccc2)C1=O` [Compound 12a]: the concentration giving a half-maximal response (EC50) in data set [1] (Leishmania infantum) came to 20.6 ± 5.86 µM. For the same molecule, in data set [2], the 50% cytotoxic concentration (CC50) at 72 h is 194 ± 8.92 µM. In addition, the “Selectivity INDEX (SI = CC50/EC50)” value with HepG2 cell line was found to be 9.4.
In the case of `O=C1NC(=O)/C(=C/c2ccc([N+](=O)[O-])cc2)S1` [Compound 5], the EC50 in data set [1] came out at 14.6 ± 2.9 µM. This molecule also returned a 50% cytotoxic concentration (CC50) at 72 h in data set [2] of 137.1 ± 1.22 µM. For the same molecule, the “Selectivity INDEX (SI = CC50/EC50)” value in the data set with HepG2 cell line is listed as 9.4.
The molecule `CC(=O)CN1C(=O)S/C(=C\c2ccc([N+](=O)[O-])cc2)C1=O` [Compound 13d, (Z)-5-(4-Nitrobenzylidene)-3-(2-oxopropyl)thiazolidine-2,4-dione] had a melting point of 207 to 209 °C.
Take `COc1cc(/C=C2\SC(=O)N(CC(N)=O)C2=O)cc(OC)c1OC` [Compound 15e]: the melting point is 274 to 275 °C (dec.).
On the same count and under the same terms, the same measure for `NC(=O)CN1C(=O)S/C(=C\c2ccccc2)C1=O` [Compound 15a, (Z)-2-(5-Benzylidenethiazolidine-2,4-dion-3-yl)acetamide]: 229 to 231 °C.
